Assay [1] concerns the target Protein kinase C alpha type (Homo sapiens, UniProt P17252). In words: Inhibition of human PKC alpha assessed as inhibition of [33P] incorporation into substrate after 60 mins by scintillation counting.
The target of assay [2] is Protein kinase C theta type (Homo sapiens, UniProt Q04759). In words: Inhibition of human PKC theta assessed as inhibition of [33P] incorporation into substrate after 60 mins by scintillation counting.
Assay [3] has as its target T1, 3-phosphoinositide-dependent protein kinase 1 (Homo sapiens, UniProt O15530).
T1 sequence (O15530 whole entry): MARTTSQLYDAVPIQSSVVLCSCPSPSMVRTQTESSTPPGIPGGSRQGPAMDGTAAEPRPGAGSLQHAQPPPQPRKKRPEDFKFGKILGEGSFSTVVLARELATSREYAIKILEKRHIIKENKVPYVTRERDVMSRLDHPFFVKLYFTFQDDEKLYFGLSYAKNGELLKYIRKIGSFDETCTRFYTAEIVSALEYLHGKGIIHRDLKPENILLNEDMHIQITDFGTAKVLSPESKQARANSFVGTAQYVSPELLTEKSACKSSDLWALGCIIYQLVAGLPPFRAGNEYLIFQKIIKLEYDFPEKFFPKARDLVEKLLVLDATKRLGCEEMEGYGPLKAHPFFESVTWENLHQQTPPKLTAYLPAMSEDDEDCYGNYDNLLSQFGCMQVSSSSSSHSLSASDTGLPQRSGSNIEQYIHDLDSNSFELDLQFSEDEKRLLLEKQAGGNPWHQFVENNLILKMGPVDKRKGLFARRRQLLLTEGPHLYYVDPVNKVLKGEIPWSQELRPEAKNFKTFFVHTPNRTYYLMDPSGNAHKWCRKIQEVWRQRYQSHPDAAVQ
In words: Inhibition of human PDK1 assessed as inhibition of [33P] incorporation into substrate after 60 mins by scintillation counting.

Chain of Protein kinase C theta type (Q04759 whole entry): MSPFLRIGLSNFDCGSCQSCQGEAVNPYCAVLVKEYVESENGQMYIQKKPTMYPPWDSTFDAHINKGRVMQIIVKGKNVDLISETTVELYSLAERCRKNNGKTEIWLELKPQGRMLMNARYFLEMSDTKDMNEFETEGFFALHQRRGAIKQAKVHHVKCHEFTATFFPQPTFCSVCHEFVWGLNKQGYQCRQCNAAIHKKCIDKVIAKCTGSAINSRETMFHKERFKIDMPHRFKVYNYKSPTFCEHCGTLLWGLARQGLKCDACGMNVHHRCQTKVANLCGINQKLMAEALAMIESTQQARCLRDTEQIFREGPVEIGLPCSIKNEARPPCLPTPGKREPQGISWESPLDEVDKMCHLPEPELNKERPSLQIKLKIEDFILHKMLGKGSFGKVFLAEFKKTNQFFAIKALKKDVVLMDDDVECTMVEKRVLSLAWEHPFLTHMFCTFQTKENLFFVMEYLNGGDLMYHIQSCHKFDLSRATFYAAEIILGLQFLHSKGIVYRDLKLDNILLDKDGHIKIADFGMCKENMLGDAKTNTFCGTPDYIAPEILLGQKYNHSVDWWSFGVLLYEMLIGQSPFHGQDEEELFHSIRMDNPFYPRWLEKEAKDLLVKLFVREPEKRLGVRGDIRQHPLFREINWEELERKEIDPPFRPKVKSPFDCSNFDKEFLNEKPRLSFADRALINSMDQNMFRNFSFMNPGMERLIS

By IC50 is commonly meant the concentration that gives 50% inhibition. Regarding `COc1cc(O)c(CC=C(C)C)c2c1C(=O)CC(c1ccc(O)cc1)O2` (stereo unspecified) [ISOXANTHOHUMOL], the results for the IC50 in assay [1], in assay [2] and in assay [3] were 45.3 µM, 31.6 µM and 58.7 µM, respectively.

In the case of `COc1cc(O)c(CC=C(C)C)c(O)c1C(=O)/C=C/c1ccc(O)cc1` [XANTHOHUMOL], the IC50 is greater than 100 µM in assay [1], greater than 100 µM in assay [2] and 6.6 µM in assay [3].
